Measured values published in patent publication US10759793B2, “2-(pyrazolopyridin-3-yl)pyrimidine derivatives as JAK inhibitors” (ALMIRALL, S.A., priority 2015, dated 2020).

How the values were obtained:
Format in all cases: biochemical
JAK3 = JAK3 (Homo sapiens (Human), UniProt P52333); assay: In vitro JAK kinase assay (TR-FRET), JAK3; conditions: catalytic domain aa 795-1124, GST-fusion; ATP 0.6 μM; peptide 140 nM; 30 minutes at room temperature
How it was run: (§1)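 Each human JAK enzyme assayed on biotinylated poly(GT) peptide substrate, reaction 30 min at room temperature. Phosphorylation detected by TR-FRET after a 3 h detection incubation.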

JAK2 = JAK2 (Homo sapiens (Human), UniProt O60674); assay: In vitro JAK kinase assay (TR-FRET), JAK2; conditions: catalytic domain aa 826-1132, GST-fusion; ATP 0.2 μM; peptide 20 nM; 30 minutes at room temperature
How it was run: as §1

JAK1 = JAK1 (Homo sapiens (Human), UniProt P23458); assay: In vitro JAK kinase assay (TR-FRET), JAK1; conditions: catalytic domain aa 850-1154, GST-fusion; ATP 3 μM; peptide 60 nM; 30 minutes at room temperature
How it was run: as §1

Chain of JAK3 (P52333 795-1124): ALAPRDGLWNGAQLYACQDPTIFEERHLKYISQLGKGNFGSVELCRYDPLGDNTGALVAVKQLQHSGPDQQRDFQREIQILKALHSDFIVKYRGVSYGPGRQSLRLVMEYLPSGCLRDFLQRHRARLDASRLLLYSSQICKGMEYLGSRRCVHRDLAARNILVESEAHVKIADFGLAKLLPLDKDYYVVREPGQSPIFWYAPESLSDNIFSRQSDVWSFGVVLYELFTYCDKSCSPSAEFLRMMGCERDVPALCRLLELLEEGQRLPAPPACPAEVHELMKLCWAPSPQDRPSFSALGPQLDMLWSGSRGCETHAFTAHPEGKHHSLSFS
Chain of JAK1 (P23458 850-1154): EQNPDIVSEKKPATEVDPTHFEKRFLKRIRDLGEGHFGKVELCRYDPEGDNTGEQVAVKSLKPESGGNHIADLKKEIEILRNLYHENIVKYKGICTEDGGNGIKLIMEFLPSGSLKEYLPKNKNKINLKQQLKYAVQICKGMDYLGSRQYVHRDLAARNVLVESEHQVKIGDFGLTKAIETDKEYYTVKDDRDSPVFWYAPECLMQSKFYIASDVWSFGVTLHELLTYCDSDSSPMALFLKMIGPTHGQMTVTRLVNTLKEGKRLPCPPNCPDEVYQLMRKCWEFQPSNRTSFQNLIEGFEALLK
Chain of JAK2 (O60674 826-1132): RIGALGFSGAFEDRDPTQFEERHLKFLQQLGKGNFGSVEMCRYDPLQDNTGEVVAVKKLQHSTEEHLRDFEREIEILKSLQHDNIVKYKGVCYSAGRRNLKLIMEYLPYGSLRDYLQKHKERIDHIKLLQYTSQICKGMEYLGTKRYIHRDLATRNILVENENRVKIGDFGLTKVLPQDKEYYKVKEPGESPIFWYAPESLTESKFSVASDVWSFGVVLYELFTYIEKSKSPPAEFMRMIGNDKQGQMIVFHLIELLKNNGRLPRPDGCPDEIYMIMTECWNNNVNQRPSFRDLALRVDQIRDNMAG

Compound: N#CCC(=O)N1CCC[C@@H](Oc2nc(-c3cnn4ccccc34)nc(NCCO)c2F)C1 [Example 70, 3-[(3R)-3-({5-Fluoro-6-[(2-hydroxyethyl)amino]-2-pyrazolo[1,5-a]pyridin-3-ylpyrimidin-4-yl}oxy)piperidin-1-yl]-3-oxopropanenitrile]
- IC50 (JAK3): 8 nM
- IC50 (JAK2): 3 nM
- IC50 (JAK1): 28 nM

Compound: Cc1cc(-c2nc(-c3cnn4ccccc34)nc(O[C@@H]3CCCN(C(=O)CO)C3)c2F)ccn1 [Example 71, 2-((3R)-3-{[5-Fluoro-6-(2-methylpyridin-4-yl)-2-pyrazolo[1,5-a]pyridin-3-ylpyrimidin-4-yl]oxy}piperidin-1-yl)-2-oxoethanol]
- IC50 (JAK3): 26 nM
- IC50 (JAK2): 2 nM
- IC50 (JAK1): 35 nM

Compound: Cc1cc(-c2nc(-c3cnn4ccccc34)nc(O[C@@H]3CCCN(C(=O)CC#N)C3)c2F)ccn1 [Example 72, 3-((3R)-3-{[5-Fluoro-6-(2-methylpyridin-4-yl)-2-pyrazolo[1,5-a]pyridin-3-ylpyrimidin-4-yl]oxy}piperidin-1-yl)-3-oxopropanenitrile]
- IC50 (JAK3): 6 nM
- IC50 (JAK2): 1 nM
- IC50 (JAK1): 6 nM

Compound: N#CCC(=O)N1CCC[C@@H](Oc2nc(-c3cnn4ccccc34)nc(-c3ccnc(CO)c3)c2F)C1 [Example 73, 3-[(3R)-3-({5-Fluoro-6-[2-(hydroxymethyl)pyridin-4-yl]-2-pyrazolo[1,5-a]pyridin-3-ylpyrimidin-4-yl}oxy)piperidin-1-yl]-3-oxopropanenitrile]
- IC50 (JAK3): 27 nM
- IC50 (JAK2): 2 nM
- IC50 (JAK1): 13 nM

Compound: O=C(CO)N1CCC[C@@H](Oc2nc(-c3cnn4ccccc34)nc(-c3ccnc(CO)c3)c2F)C1 [Example 74, 2-[(3R)-3-({5-Fluoro-6-[2-(hydroxymethyl)pyridin-4-yl]-2-pyrazolo[1,5-a]pyridin-3-ylpyrimidin-4-yl}oxy)piperidin-1-yl]-2-oxoethanol]
- IC50 (JAK3): 4 nM
- IC50 (JAK2): 1 nM
- IC50 (JAK1): 3 nM

Compound: O=C(CO)N1CCC[C@@H](Oc2nc(-c3cnn4ccccc34)nc(N3CCC(O)CC3)c2F)C1 [Example 75, 1-(5-Fluoro-6-{[(3R)-1-glycoloylpiperidin-3-yl]oxy}-2-pyrazolo[1,5-a]pyridin-3-ylpyrimidin-4-yl)piperidin-4-ol]
- IC50 (JAK3): 26 nM
- IC50 (JAK2): 4 nM
- IC50 (JAK1): 29 nM

Compound: Cc1cc(-c2nc(-c3cnn4ccccc34)nc(N(C)[C@@H]3CCCN(C(=O)CO)C3)c2F)ccn1 [Example 77, 2-{(3R)-3-[[5-Fluoro-6-(2-methylpyridin-4-yl)-2-pyrazolo[1,5-a]pyridin-3-ylpyrimidin-4-yl](methyl)amino]piperidin-1-yl}-2-oxoethanol]
- IC50 (JAK3): 23 nM
- IC50 (JAK2): 2 nM
- IC50 (JAK1): 3 nM

Compound: N#CCC(=O)N1CCC[C@@H](Nc2nc(-c3cnn4ccccc34)nc(-c3ccnc(CO)c3)c2F)C1 [Example 78, 3-[(3R)-3-({5-Fluoro-6-[2-(hydroxymethyl)pyridin-4-yl]-2-pyrazolo[1,5-a]pyridin-3-ylpyrimidin-4-yl}amino)piperidin-1-yl]-3-oxopropanenitrile]
- IC50 (JAK3): 1 nM
- IC50 (JAK2): 0.5 nM
- IC50 (JAK1): 2 nM

Compound: O=C(CO)N1CCC[C@@H](Nc2nc(-c3cnn4ccccc34)nc(-c3ccncc3)c2F)C1 [Example 80, 2-{(3R)-3-[(5-Fluoro-2-pyrazolo[1,5-a]pyridin-3-yl-6-pyridin-4-ylpyrimidin-4-yl)amino]piperidin-1-yl}-2-oxoethanol]
- IC50 (JAK3): 4 nM
- IC50 (JAK2): 1 nM
- IC50 (JAK1): 2 nM

Compound: CN(C)c1ccc(-c2nc(-c3cnn4ccccc34)nc(N[C@@H]3CCCN(C(=O)CO)C3)c2F)cn1 [Example 81, 2-[(3R)-3-({6-[6-(Dimethylamino)pyridin-3-yl]-5-fluoro-2-pyrazolo[1,5-a]pyridin-3-ylpyrimidin-4-yl}amino)piperidin-1-yl]-2-oxoethanol]
- IC50 (JAK3): 2 nM
- IC50 (JAK2): 1 nM
- IC50 (JAK1): 3 nM

Compound: Cc1ncc(-c2nc(-c3cnn4ccccc34)nc(N[C@@H]3CCCN(C(=O)CO)C3)c2F)cn1 [Example 82, 2-{(3R)-3-[(5-Fluoro-2′-methyl-2-pyrazolo[1,5-a]pyridin-3-yl-4,5′-bipyrimidin-6-yl)amino]piperidin-1-yl}-2-oxoethanol]
- IC50 (JAK3): 8 nM
- IC50 (JAK2): 2 nM
- IC50 (JAK1): 9 nM

Compound: N#CCC(=O)N1CCC[C@@H](Nc2nc(-c3cnn4ccccc34)nc(-c3ccc(CO)nc3)c2F)C1 [Example 85, 3-[(3R)-3-({5-Fluoro-6-[6-(hydroxymethyl)pyridin-3-yl]-2-pyrazolo[1,5-a]pyridin-3-ylpyrimidin-4-yl}amino)piperidin-1-yl]-3-oxopropanenitrile]
- IC50 (JAK3): 4 nM
- IC50 (JAK2): 1 nM
- IC50 (JAK1): 1 nM

Compound: Cc1cc(-c2nc(-c3cnn4ccccc34)nc(N[C@@H]3CCCN(C(=O)CO)C3)c2F)cc(C)n1 [Example 86, 2-((3R)-3-{[6-(2,6-Dimethylpyridin-4-yl)-5-fluoro-2-pyrazolo[1,5-a]pyridin-3-ylpyrimidin-4-yl]amino}piperidin-1-yl)-2-oxoethanol]
- IC50 (JAK3): 1 nM
- IC50 (JAK2): 3 nM
- IC50 (JAK1): 1 nM

Compound: Cc1cc(-c2nc(-c3cnn4ccccc34)nc(N[C@@H]3CCCN(C(=O)CC#N)C3)c2F)cc(C)n1 [Example 87, 3-((3R)-3-{[6-(2,6-Dimethylpyridin-4-yl)-5-fluoro-2-pyrazolo[1,5-a]pyridin-3-ylpyrimidin-4-yl]amino}piperidin-1-yl)-3-oxopropanenitrile]
- IC50 (JAK3): 3 nM
- IC50 (JAK2): 1 nM
- IC50 (JAK1): 10 nM

Compound: O=C(CO)N1CCC[C@@H](Nc2nc(-c3cnn4ccccc34)nc(-c3cncc(CO)c3)c2F)C1 [Example 88, 2-[(3R)-3-({5-Fluoro-6-[5-(hydroxymethyl)pyridin-3-yl]-2-pyrazolo[1,5-a]pyridin-3-ylpyrimidin-4-yl}amino)piperidin-1-yl]-2-oxoethanol]
- IC50 (JAK3): 4 nM
- IC50 (JAK2): 1 nM
- IC50 (JAK1): 14 nM

Compound: N#CCC(=O)N1CCC[C@@H](Nc2nc(-c3cnn4ccccc34)nc(-c3cncc(CO)c3)c2F)C1 [Example 89, 3-[(3R)-3-({5-Fluoro-6-[5-(hydroxymethyl)pyridin-3-yl]-2-pyrazolo[1,5-a]pyridin-3-ylpyrimidin-4-yl}amino)piperidin-1-yl]-3-oxopropanenitrile]
- IC50 (JAK3): 3 nM
- IC50 (JAK2): 1 nM
- IC50 (JAK1): 5 nM

Compound: C[C@H](O)COc1nc(-c2cnn3ccccc23)nc(O[C@@H]2CCCN(C(=O)CO)C2)c1F [Example 90, (2S)-1-[(5-Fluoro-6-{[(3R)-1-glycoloylpiperidin-3-yl]oxy}-2-pyrazolo[1,5-a]pyridin-3-ylpyrimidin-4-yl)oxy]propan-2-ol]
- IC50 (JAK3): 4 nM
- IC50 (JAK2): 1 nM
- IC50 (JAK1): 14 nM

Compound: COC[C@@H](C)Oc1nc(-c2cnn3ccccc23)nc(N[C@@H]2CCCN(c3cnc(C#N)cn3)C2)c1F [Example 91, 5-[(3R)-3-({5-Fluoro-6-[(1R)-2-methoxy-1-methylethoxy]-2-pyrazolo[1,5-a]pyridin-3-ylpyrimidin-4-yl}amino)piperidin-1-yl]pyrazine-2-carbonitrile]
- IC50 (JAK3): 5 nM
- IC50 (JAK2): 2 nM
- IC50 (JAK1): 114 nM

Compound: CC(C)OC(=O)c1nc(-c2cnn3ccccc23)nc(N[C@@H]2CCCN(C(=O)CO)C2)c1F [Example 92, Isopropyl 5-fluoro-6-{[(3R)-1-glycoloylpiperidin-3-yl]amino}-2-pyrazolo[1,5-a]pyridin-3-ylpyrimidine-4-carboxylate]
- IC50 (JAK3): 4 nM
- IC50 (JAK2): 1 nM
- IC50 (JAK1): 12 nM

Compound: COc1nc(-c2cnn3ccccc23)nc(N[C@@H]2CCCN(C(=O)CO)C2)c1C [Example 93, 2-{(3R)-3-[(6-Methoxy-5-methyl-2-pyrazolo[1,5-a]pyridin-3-ylpyrimidin-4-yl)amino]piperidin-1-yl}-2-oxoethanol]
- IC50 (JAK3): 6 nM
- IC50 (JAK2): 3 nM
- IC50 (JAK1): 23 nM

Compound: COc1cc(N[C@@H]2CCCN(C(=O)CO)C2)nc(-c2cnn3ccccc23)n1 [Example 94, 2-{(3R)-3-[(6-Methoxy-2-pyrazolo[1,5-a]pyridin-3-ylpyrimidin-4-yl)amino]piperidin-1-yl}-2-oxoethanol]
- IC50 (JAK3): 7 nM
- IC50 (JAK2): 1 nM
- IC50 (JAK1): 7 nM

Compound: COCCOc1cc(N[C@@H]2CCCN(C(=O)CO)C2)nc(-c2cnn3ccccc23)n1 [Example 96, 2-((3R)-3-{[6-(2-Methoxyethoxy)-2-pyrazolo[1,5-a]pyridin-3-ylpyrimidin-4-yl]amino}piperidin-1-yl)-2-oxoethanol]
- IC50 (JAK3): 2 nM
- IC50 (JAK2): 1 nM
- IC50 (JAK1): 6 nM

Compound: COCCOc1cc(N[C@@H]2CCCN(C(=O)CC#N)C2)nc(-c2cnn3ccccc23)n1 [Example 97, 3-((3R)-3-{[6-(2-Methoxyethoxy)-2-pyrazolo[1,5-a]pyridin-3-ylpyrimidin-4-yl]amino}piperidin-1-yl)-3-oxopropanenitrile]
- IC50 (JAK3): 1 nM
- IC50 (JAK2): 1 nM
- IC50 (JAK1): 2 nM

Compound: Cc1ccc(-c2cc(N[C@@H]3CCCN(C(=O)CO)C3)nc(-c3cnn4ccccc34)n2)cn1 [Example 99, 2-((3R)-3-{[6-(6-Methylpyridin-3-yl)-2-pyrazolo[1,5-a]pyridin-3-ylpyrimidin-4-yl]amino}piperidin-1-yl)-2-oxoethanol]
- IC50 (JAK3): 7 nM
- IC50 (JAK2): 9 nM
- IC50 (JAK1): 2 nM

Compound: Cc1ccc(-c2cc(N[C@@H]3CCCN(C(=O)CC#N)C3)nc(-c3cnn4ccccc34)n2)cn1 [Example 100, 3-((3R)-3-{[6-(6-Methylpyridin-3-yl)-2-pyrazolo[1,5-a]pyridin-3-ylpyrimidin-4-yl]amino}piperidin-1-yl)-3-oxopropanenitrile]
- IC50 (JAK3): 2 nM
- IC50 (JAK2): 2 nM
- IC50 (JAK1): 0.5 nM
